Drawing on patent publication US9624244B2, “Benzo [B] isoxazoloazepine bromodomain inhibitors and uses thereof” (Constellation Pharmaceuticals, Inc., priority 2012, dated 2017), this text covers IC50 for 17 molecules.

Some results are limits rather than exact numbers.

In one experiment the target is T1, BRD4(BD1) (Homo sapiens, UniProt O60885).
T1 construct: His; made in house
Put plainly: BRD4 AlphaLisa binding assay. The settings on record: BRD4(BD1) 30 nM, biotinylated H4-tetraacetyl peptide 200 nM, read-out: AS IC50. As for the experimental part:
IC50 Measurements for Inhibitors Using BRD4 AlphaLisa Binding Assay
Specifically, in a 384 well ProxiPlate BRD4(BD1) (30 nM final) was combined with peptide (200 nM final) in 40 mM HEPES (pH 7.0), 40 mM NaCl, 1 mM DTT, 0.01% (w/v) BSA, and 0.008% (w/v) Brij-35 either in the presence of DMSO (final 1.2% DMSO) or compound dilution series in DMSO. After 20 minute incubation at room temperature Alpha streptavidin donor beads and AlphaLisa anti-Flag acceptor beads were added to a final concentration of 10 ug/mL each. After three hours equilibration plates were read on an Envision instrument and IC50s calculated using a four parameter non-linear curve fit.

Experiment [1] relates to IL-6 secretion, THP-1 cells. The experiment is described as follows: Cell-based IL-6 quantification assay (ELISA, Mesoscale) in LPS-stimulated THP-1 cells. The settings on record: Homo sapiens, LPS 4 μg/mL, 16 h, ELISA value/CellTiter-Glo ratio. Here is the method:
Cell-Based IL-6 Quantification Assay (ELISA, Mesoscale Assay):
100,000 THP-1 cells were seeded in RPMI1640-10% FBS in 96-well plates. LPS (E. Coli Invitrogen) in RPMI-10% FBS at a final concentration of 4 μg/mL was added to the wells and the cells are then incubated in the presence of various concentrations of compounds for 16 h. Plates are spun ([…], 5 min), an aliquot of 25 uL supernatant is transferred in to an ELISA plate (Mesoscale technology, MSD) and the detection of IL-6 is performed using manufacturer's instructions. The amount of cells in each well is assessed using CellTiter-Glo® (Promega). The ratio of ELISA value/CellTiter-Glo value is used to calculate the percent of inhibition of IL-6 secretion.
Background: An ELISA detects its analyte on a solid surface through an enzyme-linked reagent.

Take `Cc1noc2c1-c1ccccc1N(c1ccc(C#N)cc1)CC2` [Compound 102]: the concentration for half-maximal inhibition (IC50) came out at 0.43 µM at BRD4(BD1) and 4.57 µM in experiment [1].

With `Cc1noc2c1-c1ccccc1NC(C)C2` (stereo not drawn) [Compound 144, 1,5-dimethyl-5,6-dihydro-4H-benzo[b]isoxazolo[4,5-d]azepine], the IC50 on BRD4(BD1) is 24 µM; in experiment [1], over 15 µM.

Consider `Cc1cc(C#N)ccc1N1CCc2onc(C)c2-c2ccccc21` [Compound 107], for which the 50% inhibitory concentration (IC50) at BRD4(BD1) was over 4 µM; in experiment [1], over 15 µM.

As to `Cc1noc2c1-c1ccccc1N(c1ccc(C#N)cc1)C(C)C2` (stereo not drawn) [Compound 141, 4-(1,5-dimethyl-4H-benzo[b]isoxazolo[4,5-d]azepin-6(5H)-yl)benzonitrile], the 50% inhibitory concentration (IC50) at BRD4(BD1) amounted to 0.56 µM; in experiment [1], 4.39 µM.

For `Cc1noc2c1-c1cc(-c3cncnc3)ccc1N(c1ccc(C#N)cc1)CC2` [Compound 112], the 50% inhibitory concentration (IC50) on BRD4(BD1) is 50 µM; in experiment [1], over 15 µM.

`Cc1noc2c1-c1ccccc1N(C(C)C)CC2` [Compound 128, 6-isopropyl-1-methyl-5,6-dihydro-4H-benzo[b]isoxazolo[4,5-d]azepine]: the IC50 on BRD4(BD1) is 8.1 µM; in experiment [1] it was over 15 µM.

Regarding `CCCN1CCc2onc(C)c2-c2ccccc21` [Compound 129, 1-methyl-6-propyl-5,6-dihydro-4H-benzo[b]isoxazolo[4,5-d]azepine], the results for the 50% inhibitory concentration (IC50) (on BRD4(BD1); in experiment [1]) were 7.9 µM and over 15 µM, respectively.

For the molecule `Cc1noc2c1-c1ccccc1N(c1ccc(Cl)cc1)CC21CC1` [Compound 105], the IC50 at BRD4(BD1) turned out to be 3.38 µM.

As to `Cc1onc2c1-c1ccccc1NCC2` [Compound 143, 1-methyl-5,6-dihydro-4H-benzo[b]isoxazolo[4,3-d]azepine], the IC50 on BRD4(BD1) was 39.6 µM.

As to `Cc1noc2c1-c1ccccc1N(C)CC2` [Compound 127, 1,6-dimethyl-5,6-dihydro-4H-benzo[b]isoxazolo[4,5-d]azepine], the figures for the IC50 (at BRD4(BD1); in experiment [1]) were 9.87 µM and over 15 µM, respectively.

For the molecule `Cc1noc2c1-c1ccc(-c3cnn(C)c3)cc1N(c1ccc(C#N)cc1)CC2CC#N` (stereo not drawn) [Compound 140, 4-(4-(cyanomethyl)-1-methyl-8-(1-methyl-1H-pyrazol-4-yl)-4H-benzo[b]isoxazolo[4,5-d]azepin-6(5H)-yl)benzonitrile], the concentration for half-maximal inhibition (IC50) at BRD4(BD1) is 0.5 µM; in experiment [1] it was over 1 µM.

With `Cc1noc2c1-c1ccccc1N(C(=O)c1ccccc1)CC2` [Compound 132, (1-methyl-4H-benzo[b]isoxazolo[4,5-d]azepin-6(5H)-yl)(phenyl)methanone], the concentration for half-maximal inhibition (IC50) at BRD4(BD1) was 8.14 µM; in experiment [1], 3.11 µM.

For `Cc1noc2c1-c1ccccc1NCC2` [Compound 100, 1-methyl-5,6-dihydro-4H-benzo[b]isoxazolo[4,5-d]azepine], the IC50 was 29.8 µM on BRD4(BD1) and over 15 µM in experiment [1].

For `Cc1noc2c1-c1cc(C#N)ccc1N(c1ccc(C#N)cc1)CC2` [Compound 108], at BRD4(BD1), the IC50 was 0.57 µM.

For the molecule `Cc1noc2c1-c1ccccc1N(c1ccc(C#N)cc1)CC21CC1` [Compound 104], the half-maximal inhibitory concentration (IC50) on BRD4(BD1) worked out at 0.75 µM.

As to `Cc1noc2c1-c1ccccc1N(c1ccc(Cl)cc1)CC2` [Compound 101], the IC50 is 2.68 µM at BRD4(BD1) and 11.9 µM in experiment [1].

Take `Cc1noc2c1-c1ccccc1NC(=O)C2N` (stereo not drawn) [Compound 142, 4-amino-1-methyl-4H-benzo[b]isoxazolo[4,5-d]azepin-5(6H)-one]: the IC50 on BRD4(BD1) was over 80 µM; in experiment [1], over 1 µM.

As usually defined, the IC50 is the midpoint of a concentration-inhibition curve.
